Values joined by “and” are separate entries in the source; they are usually repeats but may differ in a detail not shown here. Equal entries are not always repeated. Where two headings read alike, the source gives them in different places.
Key:
[1] = Metabolic stability in pooled human liver microsomes; assay type: in vitro ADME; conditions: pooled human liver microsomes 0.5 mg/mL, 1 μM test compound, 37° C., * rows = mean of two runs; for half-life at 1 μM: human, pooled human liver microsomes
Description: Pooled human liver microsomes in PBS at a concentration of 0.5 mg/mL was incubated with or without 1 mM NADPH for 70 min at 37° C. Test compound was added after 10 minutes to a final concentration of 1 μM. Samples were withdrawn at 0, 5, 15 and 60 minutes and added to test tubes containing acetonitrile, to stop the reaction, and with terfenadine, used as internal standard. After centrifugation at 10 000×g for 5 minutes the supernatant was diluted 1:1 with 1% formic acid. Samples were separated on a reverse phase column and detected by triple quadrupole MSMS (Agilant model 6540). The concentration of the parent compound at the different time points was measured with an external standard curve using terfenadine as internal standard and the initial metabolic rate in the presence or absence of NADPH calculated.

[2] = target: T1, human recombinant AT2 receptor (Homo sapiens, UniProt P50052); assay: Binding to AT2 receptor, radiometric scintillation assay (Eurofins ITEM26); conditions: for Ki: seven-point dose-response curve
T1 construct: purchased Eurofins ITEM26 (protocol number)
T1 sequence (P50052 1-363): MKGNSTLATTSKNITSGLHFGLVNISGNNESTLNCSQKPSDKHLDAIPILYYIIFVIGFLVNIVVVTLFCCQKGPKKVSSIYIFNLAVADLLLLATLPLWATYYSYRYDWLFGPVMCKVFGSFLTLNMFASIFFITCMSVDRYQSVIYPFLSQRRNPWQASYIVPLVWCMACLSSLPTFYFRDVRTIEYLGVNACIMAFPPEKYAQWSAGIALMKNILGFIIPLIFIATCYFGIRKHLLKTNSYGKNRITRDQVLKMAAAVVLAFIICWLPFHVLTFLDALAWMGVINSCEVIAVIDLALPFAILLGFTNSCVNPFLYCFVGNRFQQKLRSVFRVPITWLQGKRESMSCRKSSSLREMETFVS

[3] = with 1 mM NADPH, read-out: T1/2, + NaDPH
[4] = without NADPH, read-out: T1/2, no NaDPH
[5] = ligand 125I CGP 42112A, * rows = mean of runs
[6] = test compounds at 1, 10, 100 and 1000 nM, ligand 125I CGP 42112A, * rows = mean of runs, read-out: AT2 GraFit IC50

| Structure (SMILES) | half-life at 1 μM [1, 3] [h] | half-life at 1 μM [1, 4] [h] | T1/2, + NaDPH ([1]; with 1 mM NADPH) [h] | T1/2, + NaDPH ([1]; with 1 mM NADPH, listed as Example 34*) [h] | Ki [2, 5] | IC50 [2, 6] | T1/2, + NaDPH ([1]; with 1 mM NADPH, listed as Example 33*) [h] | T1/2, + NaDPH ([1]; with 1 mM NADPH, listed as Example 31*) [h] | IC50 ([2]; AT2 GraFit IC50, value in parentheses after <0.3, value printed in parentheses behind the bound <0.3) [nM] |
| --- | --- | --- | --- | --- | --- | --- | --- | --- | --- |
| CC(C)Cc1ccc(S(=O)(=O)Nc2ncccn2)c(-c2ccc(Cn3ccnc3C(C)(C)O)cc2)c1 [Example 15, 4′-((2-(2-Hydroxypropan-2-yl)-1H-imidazol-1-yl)methyl)-5-isobutyl-N-(pyrimidin-2-yl)-[1,1′-biphenyl]-2-sulfonamide] | > 1 | > 1 | – | – | – | – | – | – | – |
| COc1cc(NS(=O)(=O)c2ccc(CC(C)C)cc2-c2ccc(Cn3ccnc3C(C)(C)C)cc2)nc(OC)n1 [Example 34, 4′-((2-(tert-Butyl)-1H-imidazol-1-yl)methyl)-N-(2,6-dimethoxypyrimidin-4-yl)-5-isobutyl-[1,1′-biphenyl]-2-sulfonamide] | 0.283 | > 1 | 0.183 | 0.233 | 38.3 nM and 24.5 nM and 31.4 nM | 76.6 nM and 49 nM and 62.8 nM | – | – | – |
| CC(C)Cc1ccc(S(=O)(=O)Nc2ccsn2)c(-c2ccc(Cn3ccnc3C(C)(C)C)cc2)c1 [Example 33, 4′-((2-(tert-Butyl)-1H-imidazol-1-yl)methyl)-5-isobutyl-N-(isothiazol-3-yl)-[1,1′-biphenyl]-2-sulfonamide] | 0.2 | > 1 | 0.217 | – | 1.13 nM and 7.18 nM and 4.16 nM | 2.25 nM and 14.4 nM and 8.33 nM | 0.208 | – | – |
| COc1cnc(NS(=O)(=O)c2ccc(CC(C)C)cc2-c2ccc(Cn3ccnc3C(C)(C)C)c(F)c2)nc1 [Example 31, 4′-((2-(tert-Butyl)-1H-imidazol-1-yl)methyl)-3′-fluoro-5-isobutyl-N-(5-methoxy-pyrimidin-2-yl)-[1,1′-biphenyl]-2-sulfonamide] | 0.783 | > 1 | 0.583 | – | 1.21 nM and 1.84 nM and 1.53 nM | 2.43 nM and 3.68 nM and 3.06 nM | – | 0.683 | – |
| CC(C)Cc1cc(-c2ccc(Cn3ccnc3C(C)(C)C)cc2)c(S(=O)(=O)Nc2ncccn2)s1 [Example 16, 3-(4-((2-(tert-Butyl)-1H-imidazol-1-yl)methyl)phenyl)-5-isobutyl-N-(pyrimidin-2-yl)thiophene-2-sulfonamide] | > 1 | > 1 | – | – | – | – | – | – | – |
| Cc1nccn1Cc1ccc(-c2cc(CC(C)C)ccc2S(=O)(=O)Nc2ncccn2)cc1 [Example 37, 5-Isobutyl-4′-((2-methyl-1H-imidazol-1-yl)methyl)-N-(pyrimidin-2-yl)-[1,1′-biphenyl]-2-sulfonamide] | > 1 | > 1 | – | – | 0.58 nM | 1.16 nM | – | – | – |
| COc1cnc(NS(=O)(=O)c2ccc(CC(C)C)cc2-c2ccc(Cn3ccnc3C(C)(C)C)cc2)nc1 [Example 36, 4′-((2-(tert-Butyl)-1H-imidazol-1-yl)methyl)-5-isobutyl-N-(5-methoxypyrimidin-2-yl)-[1,1′-biphenyl]-2-sulfonamide] | 0.7 | > 1 | – | – | 5.99 nM | 12 nM | – | – | – |
| CC(C)Cc1ccc(S(=O)(=O)Nc2ncccn2)c(-c2ccc(Cn3ccnc3C(C)(C)C)cc2)c1 [Example 17, 4′-((2-(tert-Butyl)-1H-imidazol-1-yl)methyl)-5-isobutyl-N-(pyrimidin-2-yl)-[1,1′-biphenyl]-2-sulfonamide] | > 1 | > 1 | – | – | – | – | – | – | – |

The remaining lines, values ahead:

| half-life at 1 μM [1, 3] [h] | half-life at 1 μM [1, 4] [h] | T1/2, + NaDPH ([1]; with 1 mM NADPH) [h] | T1/2, + NaDPH ([1]; with 1 mM NADPH, listed as Example 34*) [h] | Ki [2, 5] | IC50 [2, 6] | T1/2, + NaDPH ([1]; with 1 mM NADPH, listed as Example 33*) [h] | T1/2, + NaDPH ([1]; with 1 mM NADPH, listed as Example 31*) [h] | IC50 ([2]; AT2 GraFit IC50, value in parentheses after <0.3, value printed in parentheses behind the bound <0.3) [nM] | Structure (SMILES) |
| --- | --- | --- | --- | --- | --- | --- | --- | --- | --- |
| 0.967 | > 1 | – | – | 1.38 nM | 2.76 nM | – | – | – | CC(C)Cc1ccc(S(=O)(=O)Nc2ncccn2)c(-c2ccc(Cn3ccnc3)cc2)c1 [Example 38, 4′-((1H-Imidazol-1-yl)methyl)-5-isobutyl-N-(pyrimidin-2-yl)-[1,1′-biphenyl]-2-sulfonamide] |
| 0.95 | > 1 | – | – | – | – | – | – | – | CC(C)Cc1ccc(S(=O)(=O)Nc2ncccn2)c(-c2ccc(Cn3ccnc3C(C)C)cc2)c1 [Example 39, 5-Isobutyl-4′-((2-isopropyl-1H-imidazol-1-yl)methyl)-N-(pyrimidin-2-yl)-[1,1′-biphenyl]-2-sulfonamide] |
| > 1 | > 1 | – | – | 0.33 nM | 0.65 nM | – | – | – | CC(C)Cc1cc(-c2ccc(Cn3ccnc3C(C)C)c(F)c2)c(S(=O)(=O)Nc2ncccn2)s1 [Example 46, 3-(3-Fluoro-4-((2-isopropyl-1H-imidazol-1-yl)methyl)phenyl)-5-isobutyl-N-(pyrimidin-2-yl)thiophene-2-sulfonamide] |
| – | – | – | – | – | < 0.3 nM | – | – | 0.25 | Cc1nccn1Cc1ccc(-c2cc(CC(C)C)ccc2S(=O)(=O)Nc2ncccn2)cc1F [Example 53, Potassium ((3′-fluoro-5-isobutyl-4′-((2-methyl-1H-imidazol-1-yl)methyl)-[1,1′-biphenyl]-2-yl)sulfonyl)(pyrimidin-2-yl)amide] |
| > 1 | > 1 | – | – | – | – | – | – | – | CC(C)Cc1ccc(S(=O)(=O)Nc2ncccn2)c(-c2ccc(Cn3ccnc3C3CC3)c(F)c2)c1 [Example 42, 4′-((2-Cyclopropyl-1H-imidazol-1-yl)methyl)-3′-fluoro-5-isobutyl-N-(pyrimidin-2-yl)-[1,1′-biphenyl]-2-sulfonamide] |
| > 1 | > 1 | – | – | 0.77 nM | 1.53 nM | – | – | – | CC(C)Cc1cc(-c2ccc(Cn3ccnc3C3CC3)cc2)c(S(=O)(=O)Nc2ncccn2)s1 [Example 52, 3-(4-((2-Cyclopropyl-1H-imidazol-1-yl)methyl)phenyl)-5-isobutyl-N-(pyrimidin-2-yl)thiophene-2-sulfonamide] |
| > 1 | > 1 | – | – | – | – | – | – | – | CC(C)Cc1cc(-c2ccc(Cn3ccnc3)c(F)c2)c(S(=O)(=O)Nc2ncccn2)s1 [Example 48, 3-(4-((1H-Imidazol-1-yl)methyl)-3-fluorophenyl)-5-isobutyl-N-(pyrimidin-2-yl)thiophene-2-sulfonamide] |
| 0.75 | > 1 | – | – | – | – | – | – | – | CCc1nccn1Cc1ccc(-c2cc(CC(C)C)ccc2S(=O)(=O)Nc2ncccn2)cc1 [Example 40, 4′-((2-Ethyl-1H-imidazol-1-yl)methyl)-5-isobutyl-N-(pyrimidin-2-yl)-[1,1′-biphenyl]-2-sulfonamide] |
| > 1 | > 1 | – | – | 0.3 nM | 0.6 nM | – | – | – | CC(C)Cc1cc(-c2ccc(Cn3ccnc3C(C)(C)C)c(F)c2)c(S(=O)(=O)Nc2ncccn2)s1 [Example 43, 3-(4-((2-(tert-Butyl)-1H-imidazol-1-yl)methyl)-3-fluorophenyl)-5-isobutyl-N-(pyrimidin-2-yl)thiophene-2-sulfonamide] |
| > 1 | > 1 | – | – | – | – | – | – | – | CC(C)Cc1ccc(S(=O)(=O)Nc2ncccn2)c(-c2ccc(Cn3ccnc3C3CC3)cc2)c1 [Example 41, 4′-((2-Cyclopropyl-1H-imidazol-1-yl)methyl)-5-isobutyl-N-(pyrimidin-2-yl)-[1,1′-biphenyl]-2-sulfonamide] |

Source: patent US12441718B2, “Selective angiotensin II compounds” (VICORE PHARMA AB, priority 2021, dated 2025)
